Reference: patent US8877747B2, “Indenone derivative and pharmaceutical composition comprising same” (Korea Research Institute of Chemical Technology, priority 2009, dated 2014)
Counter-ions that a name gives are not always drawn.

These compounds were tested on MC3T3-E1 cells (assay: ALP activity, differentiation of osteoblast cells). Details: Mus musculus, MC3T3-E1, 144 h; MC3T3E1 cells treated with 10 μM compound and OF; relates activity to OF-only group (100%); higher = more efficacious.
Type: cell-based
Method: To examine the effects of the inventive indenone derivatives on the differentiation and activation of osteoblast cells, the activity and expression of alkaline phosphatase (ALP), a marker for the differentiation of osteoblast cells, and the bone nodule formation using a mouse derived osteoblast-like cells, MC3T3-E1 (ATCC, Japan) or a primary mouse calvaria derived preosteoblastic cells were observed.
MC3T3-E 1 cells were seeded in a medium containing osteogenic factors (OF) such as ascorbic acids and β-glycerophosphates (b-GP), and each compound of Examples was added thereto at a concentration of 0.1, 1 and 10 μM. The cells were incubated for 6 days (MC3T3-E1 cells) or 7 days (primary mouse calvaria derived preosteoblastic cells) in a 37° C. CO2 incubator. Then, the culture medium was replaced with a fresh medium together with the test compound every two or three days. On the last day, the medium was centrifuged to remove the supernatant, and the cells were washed with PBS. The washed cells were subjected to a 3-cycle freege-thaw treatment using a −70° C. deep freezer to allow enzymes elute in a lysis buffer. The lysed protein was quantified, followed by measurement of ALP activity using 4-nitrophenylphosphate.
Further, a group treated only with DMSO or OF was tested for ALP activities for comparison.
CC(C)(C)OC(=O)N1CCN(CCOc2ccc3c(c2)C(=O)C(c2cccnc2)=C3c2ccccc2)CC1 [Example 44, tert-butyl 4-(2-(1-oxo-3-phenyl-2-(pyridin-3-yl)-1H-inden-6-yloxy)ethyl)piperazine-1-carboxylate] gave an activity at 10 µM of 710%.
CS(=O)(=O)N1CCN(CCOc2ccc3c(c2)C(=O)C(c2cccnc2)=C3c2ccccc2)CC1 [Example 45, 6-[2-(4-(methylsulfonyl)piperazin-1-yl)ethoxy]-3-phenyl-2-(pyridin-3-yl)-1H-inden-1-one hydrochloride salt] gave an activity at 10 µM of 192%.
In the case of O=C1C(c2cccnc2)=C(c2ccccc2)c2ccc(OCCN3CCNCC3)cc21 [Example 46, 6-(2-(piperazin-1-yl)ethoxy)-3-phenyl-2-(pyridin-3-yl)-1H-inden-1-one], the activity at 10 µM is reported as 107%.
Compound CS(=O)(=O)N1CCN(CCOc2ccc3c(c2)C(=O)C(c2ccc(F)c(F)c2)=C3c2ccc(C(F)(F)F)cc2)CC1 [Example 48, 2-(3,4-difluorophenyl)-6-(2-(4-(methylsulfonyl)piperazin-1-yl)ethoxy)-3-(4-(trifluoromethyl)phenyl)-1H-inden-1-one] has an activity at 10 µM of 67%.
Work on CS(=O)(=O)N1CCN(CCOc2ccc3c(c2)C(=O)C(c2cncnc2)=C3c2ccc(C(F)(F)F)cc2)CC1 [Example 49, 6-(2-(4-(methylsulfonyl)piperazin-1-yl)ethoxy)-2-(pyrimidin-5-yl)-3-(4-(trifluoromethyl)phenyl)-1H-inden-1-one] yielded an activity at 10 µM of 37%.
CS(=O)(=O)N1CCN(CCOc2ccc3c(c2)C(=O)C(c2ccc(F)c(F)c2)=C3c2cc(F)cc(F)c2)CC1 [Example 51, 2-(3,4-difluorophenyl)-3-(3,5-difluorophenyl)-6-(2-(4-(methylsulfonyl)piperazin-1-yl)ethoxy)-1H-inden-1-one hydrochloride salt] gave an activity at 10 µM of 33%.
CS(=O)(=O)N1CCN(CCOc2ccc3c(c2)C(=O)C(c2cncnc2)=C3c2cc(F)cc(F)c2)CC1 [Example 52, 3-(3,5-difluorophenyl)-6-(2-(4-(methylsulfonyl)piperazin-1-yl)ethoxy)-2-(pyrimidin-5-yl)-1H-inden-1-one hydrochloride salt] gave an activity at 10 µM of 50%.
With CS(=O)(=O)N1CCN(CCOc2ccc3c(c2)C(=O)C(c2ccc(F)c(F)c2)=C3c2ccc(Cl)cc2)CC1 [Example 53, 3-(4-chlorophenyl)-2-(3,4-difluorophenyl)-6-(2-(4-(methylsulfonyl)piperazin-1-yl)ethoxy)-1H-inden-1-one hydrochloride salt] the activity at 10 µM was 27%.
Work on CS(=O)(=O)N1CCN(CCOc2ccc3c(c2)C(=O)C(c2cncnc2)=C3c2ccc(Cl)cc2)CC1 [Example 54, 3-(4-chlorophenyl)-6-(2-(4-(methylsulfonyl)piperazin-1-yl)ethoxy)-2-(pyrimidin-5-yl)-1H-inden-1-one hydrochloride salt] yielded an activity at 10 µM of 62%.
Compound CC(C)(C)OC(=O)N1CCN(CCCOc2ccc3c(c2)C(=O)C(c2cccnc2)=C3c2ccccc2)CC1 [Example 55, tert-Butyl 4-(3-(1-oxo-3-phenyl-2-(pyridin-3-yl)-1H-inden-6-yloxy)propyl)piperazine-1-carboxylate] has an activity at 10 µM of 129%.
CN(C)CCOc1ccc2c(c1)C(=O)C(c1cccnc1)=C2c1ccccc1 [Example 56, 6-(2-(dimethylamino)ethoxy)-3-phenyl-2-(pyridin-3-yl)-1H-inden-1-one hydrochloride salt] showed an activity at 10 µM of 71%.
For CN(C)CCCOc1ccc2c(c1)C(=O)C(c1cccnc1)=C2c1ccccc1 [Example 57, 6-(3-(dimethylamino)propoxy)-3-phenyl-2-(pyridin-3-yl)-1H-inden-1-one hydrochloride salt], the activity at 10 µM was 62%.
Work on CC(C)(C)OC(=O)N1CCN(CCOc2ccc3c(c2)C(=O)C(c2cccnc2)=C3c2cc(F)cc(F)c2)CC1 [Example 58, tert-Butyl 4-(2-(3-(3,5-difluorophenyl)-1-oxo-2-(pyridin-3-yl)-1H-inden-6-yloxy)ethyl)piperazine-1-carboxylate] yielded an activity at 10 µM of 19%.
In the case of CS(=O)(=O)N1CCN(CCOc2ccc3c(c2)C(=O)C(c2cccnc2)=C3c2cc(F)cc(F)c2)CC1 [Example 59, 3-(3,5-difluorophenyl)-6-(2-(4-(methylsulfonyl)piperazin-1-yl)ethoxy)-2-(pyridin-3-yl)-1H-inden-1-one hydrochloride salt], the activity at 10 µM is reported as 254%.
CN(C)CCCOc1ccc2c(c1)C(=O)C(c1cccnc1)=C2c1cc(F)cc(F)c1 [Example 60, 3-(3,5-difluorophenyl)-6-(3-(dimethylamino)propoxy)-2-(pyridin-3-yl)-1H-inden-1-one hydrochloride salt] showed an activity at 10 µM of 19%.
O=C1C(c2cccnc2)=C(c2cc(F)cc(F)c2)c2ccc(OCCc3ccccc3)cc21 [Example 61, 3-(3,5-difluorophenyl)-6-phenethoxy-2-(pyridin-3-yl)-1H-inden-1-one hydrochloride salt] gave an activity at 10 µM of 113%.
O=C1C(c2cccnc2)=C(c2cc(F)cc(F)c2)c2ccc(OCCc3ccccn3)cc21 [Example 62, 3-(3,5-difluorophenyl)-6-(2-(pyridin-2-yl)ethoxy)-2-(pyridin-3-yl)-1H-inden-1-one hydrochloride salt] gave an activity at 10 µM of 90%.
O=C1C(c2cccnc2)=C(c2cc(F)cc(F)c2)c2ccc(OCCN3CCCCC3)cc21 [Example 63, 3-(3,5-difluorophenyl)-6-(2-(piperidin-1-yl)ethoxy)-2-(pyridin-3-yl)-1H-inden-1-one hydrochloride salt] gave an activity at 10 µM of 53%.
With CC(C)(C)OC(=O)N1CCN(CCCOc2ccc3c(c2)C(=O)C(c2cccnc2)=C3c2cc(F)cc(F)c2)CC1 [Example 64, tert-butyl 4-(3-(3-(3,5-difluorophenyl)-1-oxo-2-(pyridin-3-yl)-1H-inden-6-yloxy)propyl)piperazine-1-carboxylate] the activity at 10 µM was 34%.
For CN1CCN(CCCOc2ccc3c(c2)C(=O)C(c2cccnc2)=C3c2cc(F)cc(F)c2)CC1 [Example 65, 3-(3,5-difluorophenyl)-6-(3-(4-methylpiperazin-1-yl)propoxy)-2-(pyridin-3-yl)-1H-inden-1-one hydrochloride salt], the activity at 10 µM was 19%.
In the case of O=C1C(c2cccnc2)=C(c2cc(F)cc(F)c2)c2ccc(OCCCN3CCNCC3)cc21 [Example 66, 3-(3,5-difluorophenyl)-6-(3-(piperazin-1-yl)propoxy)-2-(pyridin-3-yl)-1H-inden-1-one hydrochloride salt], the activity at 10 µM is reported as 70%.
CC(=O)N1CCN(CCCOc2ccc3c(c2)C(=O)C(c2cccnc2)=C3c2cc(F)cc(F)c2)CC1 [Example 67, 6-(3-(4-acetylpiperazin-1-yl)propoxy)-3-(3,5-difluorophenyl)-2-(pyridin-3-yl)-1H-inden-1-one hydrochloride salt] gave an activity at 10 µM of 116%.
In the case of CS(=O)(=O)N1CCN(CCCOc2ccc3c(c2)C(=O)C(c2cccnc2)=C3c2cc(F)cc(F)c2)CC1 [Example 68, 3-(3,5-difluorophenyl)-6-(3-(4-(methylsulfonyl)piperazin-1-yl)propoxy)-2-(pyridin-3-yl)-1H-inden-1-one hydrochloride salt], the activity at 10 µM is reported as 164%.
For CC(C)(C)OC(=O)N1CCC(CCOc2ccc3c(c2)C(=O)C(c2cccnc2)=C3c2cc(F)cc(F)c2)CC1 [Example 69, tert-butyl 4-(2-(3-(3,5-difluorophenyl)-1-oxo-2-(pyridin-3-yl)-1H-inden-6-yloxy)ethyl)piperidine-1-carboxylate], the activity at 10 µM was 72%.
With O=C1C(c2cccnc2)=C(c2cc(F)cc(F)c2)c2ccc(OCCC3CCNCC3)cc21 [Example 70, 3-(3,5-difluorophenyl)-6-(2-(piperidin-4-yl)ethoxy)-2-(pyridin-3-yl)-1H-inden-1-one hydrochloride salt] the activity at 10 µM was 19%.
Work on CN1CCC(CCOc2ccc3c(c2)C(=O)C(c2cccnc2)=C3c2cc(F)cc(F)c2)CC1 [Example 71, 3-(3,5-difluorophenyl)-6-(2-(1-methylpiperidin-4-yl)ethoxy)-2-(pyridin-3-yl)-1H-inden-1-one hydrochloride salt] yielded an activity at 10 µM of 19%.
Compound CC(=O)N1CCC(CCOc2ccc3c(c2)C(=O)C(c2cccnc2)=C3c2cc(F)cc(F)c2)CC1 [Example 72, 6-(2-(1-acetylpiperidin-4-yl)ethoxy)-3-(3,5-difluorophenyl)-2-(pyridin-3-yl)-1H-inden-1-one hydrochloride salt] has an activity at 10 µM of 58%.
CS(=O)(=O)N1CCC(CCOc2ccc3c(c2)C(=O)C(c2cccnc2)=C3c2cc(F)cc(F)c2)CC1 [Example 73, 3-(3,5-difluorophenyl)-6-(2-(1-(methylsulfonyl)piperidin-4-yl)ethoxy)-2-(pyridin-3-yl)-1H-inden-1-one hydrochloride salt] was tested, and the activity at 10 µM was 150%.
Compound O=C1C(c2cccnc2)=C(c2cc(F)cc(F)c2)c2ccc(OCCN3CCS(=O)(=O)CC3)cc21 [Example 74, 6-[2-(1,1-dioxothiomorpholin-4-yl)ethoxy]-3-(3,5-difluorophenyl)-2-(pyridin-3-yl)-1H-inden-1-one hydrochloride salt] has an activity at 10 µM of 206%.
O=C1C(c2cccnc2)=C(c2cc(F)cc(F)c2)c2ccc(OCCC3CCOCC3)cc21 [Example 78, 3-(3,5-difluorophenyl)-2-(pyridin-3-yl)-6-(2-(tetrahydro-2H-pyran-4-yl)ethoxy)-1H-inden-1-one] showed an activity at 10 µM of 187%.
O=C1C(c2cccnc2)=C(c2cc(F)cc(F)c2)c2ccc(OCC3CCCO3)cc21 (stereo not shown) [Example 79, 3-(3,5-difluorophenyl)-2-(pyridin-3-yl)-6-((tetrahydrofuran-2-yl)methoxy)-1H-inden-1-one] showed an activity at 10 µM of 110%.
